According to patent US8742167B2, “Therapeutic formulations based on asiatic acid and selected salts thereof” (Shanghai Institute of Pharmaceutical Industry, priority 2008, dated 2014):
Values joined by “and” are separate entries in the source; they are usually repeats but may differ in a detail not shown here. Equal entries are not always repeated. “Also recorded” adds a separate entry of the source. Structures can show the parent of a compound that is named as a salt. Where two headings read alike, the source gives them in different places. Marks after values point to notes of the source that are not given here.

Tests used:
[1] = Solubility in water and methanol (saturated solutions, HPLC); assay type: physicochemical; details: for Solubility: single preparations (inj 1A-1C)
Protocol: Approximately 5 mg of asiatic acid were transferred into a 25 mL volumetric flask, and 1 mL, of methanol was added and mixed well, until the acid had dissolved in the methanol. The volumetric flask then was brought to volume with mobile phase and mixed well. [table] Saturated solutions obtained from starting material and salt in methanol and water were filtered and diluted accordingly with mobile phase. No dilution was performed for asiatic acid in water. Samples were prepared in triplicate except for the sodium salt prepared in methanol, for which two preparations were done.

[2] = tested on: bleomycin-induced pulmonary fibrosis in rats; assay: Mortality during experiment days 7-28, bleomycin-induced pulmonary fibrosis in rats; assay type: in vivo, SD rats
Protocol: (§1) Male SD rats, body weight 250-300 g. The animals were anesthetized with 3% seconal, laid flat and fixed onto the operating table. The necks of the animals were disinfected with alcohol and cut to expose tracheae. A needle was inserted via the space between tracheal rings centripetally, and 5 mg/kg of bleomycin was injected. The rats were kept upright and rotated, in order to keep the solution uniformly distributed in the lungs. Then the incisions were sutured.
(§2) After the rats regained consciousness, they were randomly grouped. The animals were divided into (i) a group receiving administration on the next day after establishing the model and (ii) a group receiving administration at 7 days after the model was established. Included were 27, 9, and 3 mg/kg p.o.×28 d asiatic acid groups, 0.6 mg/kg p.o.×28 d dexamethasone group, 36 mg/kg p.o.×28 d asiaticoside group, model group, and blank group. Normal saline was administered for the model and blank groups. On the 28th day after asiatic acid and asiaticoside administration, survival and weight ratio of lungs were measured; pathological examination and serological examination were performed.

[3] = tested on: pulmonary fibrosis induced by bleomycin in rats; assay: Pathological analysis of lung (HE staining; collagen fiber and elastic fiber dual staining); assay type: in vivo, SD rats; details: asiaticoside 36 mg/kg; administration on the next day after establishing model
Protocol: as §1, §2
The lung tissues were fixed in 10% formalin for 1 week. […] The thickness of sections was […]. Routine hematoxylin-eosin (HE) staining was performed. Dual special staining of collagen fibers and elastic fibers were conducted in order to detect the degree of fibrosis. The staining of the two groups of sections was observed and the results were as follows.

[4] = tested on: bleomycin-induced pulmonary fibrosis in rats; assay: Lung weight index of bleomycin-induced pulmonary fibrosis in rats; assay type: in vivo, SD rats; details: for lung weight ratio (%): (lung weight/body weight)x100%
Protocol: as §1, §2
Effect of on lung weight index of bleomycin-induced pulmonary fibrosis in rats treated with asiatic acid Body weight and lung weight were measured after the rats were sacrificed. Lung weight ratio=(lung weight/body weight)×100%.

Type III collagen = Type III collagen content, bleomycin rat model; assay type: in vivo, SD rats
Protocol: as §1, §2

TFG-β = assay: Serological test (ELISA kit) of TFG-β in rats of bleomycin-induced pulmonary fibrosis; assay type: in vivo, SD rats; details: serum; for TFG-β (2nd day) X ± SD: dosing from 2nd day; for TFG-β (7th day) X ± SD: dosing from 7th day
Protocol: TFG-β Kit, Human 96T ELISA kit imported by Shanghai Jingmei
as §1, §2
(§3) Serum samples were prepared according to a standard protocol (centrifuged 3000 rpm, 10 minutes after collection) and were stored at −20° C. Testing was conducted in accordance with kit instructions.

Hydroxyproline = assay: Measured value of hydroxyproline in experiment of asiatic acid antagonizing fibrosis; assay type: in vivo, SD rats; design: Measured Value of Hydroxyproline (on 2nd day), single animals / Measured Value of Hydroxyproline (on 2nd day), X / Measured Value of Hydroxyproline (on 7th day), single animals / Measured Value of Hydroxyproline (on 7th day), X: unit not given here; details: for Measured Value of Hydroxyproline (on 2nd day), X / Measured Value of Hydroxyproline (on 7th day), X: group mean
Protocol: as §1, §2

TNF-α = assay: Serological test (ELISA kit) of TNF-α in rats of bleomycin-induced pulmonary fibrosis; assay type: in vivo, SD rats; details: serum; for TNF-α (2nd day) X ± SD: dosing from 2nd day; for TNF-α (7th day) X ± SD: dosing from 7th day
Protocol: TNF-α Kit, Human 96T ELISA kit imported by Shanghai Jingmei
as §1, §2, §3

[5] = asiaticoside 36 mg/kg, individual rats 1-10
[6] = dexamethasone (0.6 mg/kg), individual rats 1-6

C[C@H]1[C@H](C)CC[C@]2(C(=O)O)CC[C@]3(C)C(=CC[C@@H]4[C@@]5(C)C[C@@H](O)[C@H](O)[C@@](C)(CO)[C@@H]5CC[C@]43C)[C@H]12 [Asiatic acid-Na salt NaOH, asiatic acid sodium salt]
Solubility ([1]; MeOH, sodium salt): 24080 µg/mL | Solubility ([1]; methanol, organic solvent or mixture, thermodynamic from solid, MeOH, read-out: Solubility): 25400 µg/mL | times more soluble than asiatic acid ([1]; water): ~228 times | Solubility ([1]; water, thermodynamic from solid, water, read-out: Solubility): 6860 µg/mL | Solubility ([1]; water, sodium salt): 6360 µg/mL and 7320 µg/mL

C[C@H]1[C@H](C)CC[C@]2(C(=O)O[C@@H]3O[C@H](CO[C@@H]4O[C@H](CO)[C@@H](O[C@@H]5O[C@H](C)[C@H](O)[C@@H](O)[C@H]5O)[C@H](O)[C@H]4O)[C@@H](O)[C@H](O)[C@H]3O)CC[C@]3(C)C(=CC[C@@H]4[C@@]5(C)C[C@@H](O)[C@H](O)[C@@](C)(CO)[C@@H]5CC[C@]43C)[C@H]12 [Asiaticoside, asiaticoside]
remaining samples at the end of study ([2]; asiaticoside 36 mg/kg p.o. x 28 d, dosing started on 2nd day, 14 on day 7): 12 | number of deaths ([2]; asiaticoside 36 mg/kg p.o. x 28 d, dosing started on 2nd day, days 7-28): 2 | number of deaths ([2]; asiaticoside 36 mg/kg p.o. x 28 d, dosing started on 7th day): 2 | remaining samples at the end of study ([2]; asiaticoside 36 mg/kg p.o. x 28 d, dosing started on 7th day, 13 in the group): 11 | survival / bleomycin-induced death ([2]; rats treated with bleomycin, treatment initiated one day or seven days after bleomycin): largely prevented bleomycin-induced death; also recorded: significantly enhance survival | lung pathology, HE staining [3]: less serious than those of the model group | lung weight ratio (%) ([4]; asiaticoside 36 mg/kg, started 7 day after model established): 0.80** % | lung weight ratio (%) ([4]; asiaticoside 36 mg/kg, started from the second day): 0.84** % | lung weight (g) X ± SD ([4]; asiaticoside 36 mg/kg, 28-day administration started 7 day after model established): 2.59 ± 0.33 g | lung weight (g) X ± SD ([4]; asiaticoside 36 mg/kg, 28-day administration started from the second day): 2.62 ± 0.38 g | lung weight to body weight ratio ([4]; starting on 2nd or 7th day, compared with the model group): significantly decrease bleomycin-induced lung fibrosis | serum levels of type III collagen (Type III collagen; overall statement): significantly decrease bleomycin-induced fibrosis | TFG-β (2nd day) X ± SD (TFG-β; asiaticoside 36 mg/kg): 0.670 ± 0.155 OD value | TFG-β (7th day) X ± SD (TFG-β; asiaticoside 36 mg/kg): 1.181 ± 0.364 OD value | Measured Value of Hydroxyproline (on 2nd day), X (Hydroxyproline; asiaticoside 36 mg/kg): 24.11 | Measured Value of Hydroxyproline (on 7th day), X (Hydroxyproline; asiaticoside 36 mg/kg): 26.57 | Measured Value of Hydroxyproline (on 2nd day), single animals (Hydroxyproline; [5]): 28.56 and 28.69 and 19.63 and 25.34 and 28.11 and 20.54 and 25.36 and 19.47 and 25.25 and 20.11 | Measured Value of Hydroxyproline (on 7th day), single animals (Hydroxyproline; [5]): 28.19 and 24.36 and 28.17 and 24.69 and 29.1 and 25.11 and 25.91 and 24.97 and 29.69 and 25.55 | serum levels of hydroxyproline (Hydroxyproline; overall statement): significantly decrease bleomycin-induced fibrosis | TNF-α (2nd day) X ± SD (TNF-α; asiaticoside 36 mg/kg): 0.064 ± 0.013 OD value | TNF-α (7th day) X ± SD (TNF-α; asiaticoside 36 mg/kg): 0.091 ± 0.027 OD value

C[C@@H]1C[C@H]2[C@@H]3CCC4=CC(=O)C=C[C@]4(C)[C@@]3(F)[C@@H](O)C[C@]2(C)[C@@]1(O)C(=O)CO [Dexamethasone, reference compound]
remaining samples at the end of study ([2]; dexamethasone 0.6 mg/kg p.o. x 28 d, dosing started on 2nd day, 14 on day 7): 6 | number of deaths ([2]; dexamethasone 0.6 mg/kg p.o. x 28 d, dosing started on 2nd day, days 7-28): 8 | number of deaths ([2]; dexamethasone 0.6 mg/kg p.o. x 28 d, dosing started on 7th day): 7 | remaining samples at the end of study ([2]; dexamethasone 0.6 mg/kg p.o. x 28 d, dosing started on 7th day, 13 in the group): 6 | lung weight ratio (%) ([4]; dexamethasone 0.6 mg/kg, started 7 day after model established): 1.14% | lung weight ratio (%) ([4]; dexamethasone 0.6 mg/kg, started from the second day): 1.31% | lung weight (g) X ± SD ([4]; dexamethasone 0.6 mg/kg, 28-day administration started 7 day after model established): 2.05 ± 0.40 g | lung weight (g) X ± SD ([4]; dexamethasone 0.6 mg/kg, 28-day administration started from the second day): 2.06 ± 0.52 g | Type III collagen content X ± SD (Type III collagen; Dex (0.6 mg/kg), treatment starting on Day 7): 0.518 ± 0.527 | TFG-β (2nd day) X ± SD (TFG-β; dexamethasone 0.6 mg/kg): 0.751 ± 0.214 OD value | TFG-β (7th day) X ± SD (TFG-β; dexamethasone 0.6 mg/kg): 0.717 ± 0.197 OD value | Measured Value of Hydroxyproline (on 2nd day), X (Hydroxyproline; dexamethasone (0.6 mg/kg)): 23.45 | Measured Value of Hydroxyproline (on 7th day), X (Hydroxyproline; dexamethasone (0.6 mg/kg)): 27.35 | Measured Value of Hydroxyproline (on 2nd day), single animals (Hydroxyproline; [6]): 19.86 and 23.31 and 21.69 and 24.63 and 25.36 and 25.87 | Measured Value of Hydroxyproline (on 7th day), single animals (Hydroxyproline; [6]): 25.17 and 27.44 and 25.99 and 29.66 and 28.07 and 27.75 | TNF-α (2nd day) X ± SD (TNF-α; dexamethasone 0.6 mg/kg): 0.073 ± 0.006 OD value | TNF-α (7th day) X ± SD (TNF-α; dexamethasone 0.6 mg/kg): 0.060 ± 0.006 OD value
